System: Normal human fibroblasts (NHF)
Test: Fibroblast proliferation by BrdU incorporation
Type: cell-based
Settings: single agent; Ascophyscient 10 and 100 μg/ml, sodium hyaluronate 100 and 1000 μg/ml; 44 hours, DMEM with 3% FCS; FIG. 2
Method: The technique used is that of incorporation of a nucleotide, 5-bromo-2′-deoxyuridine (BrdU), a thymidine analog, in the DNA of S-phase cells, at 37° C. This technique makes it possible to quantify cells of which the advance in the cell cycle is characteristic of a proliferating cell (S-phase or DNA synthesis phase). Normal human fibroblasts (NHF), isolated from surgical waste skin, are usually cultivated in Dulbecco's modified Eagle's medium (DMEM) with 10% fetal calf serum (FCS). In our experimental conditions, dilutions of the products to be tested are prepared in DMEM with 3% FCS. The cells are first deprived of FCS for 24 hours to stop cell multiplication before incubating them in the presence of the molecules to be evaluated for 44 hours at 37° C., in a 5% CO2 atmosphere. BrdU incorporation, proportional to cell proliferation rate, is evaluated by an anti-BrdU antibody system (Roche Applied Science). The corresponding absorbance (OD) is measured at 450 nm. This datum is thus proportional to cell proliferation rate. […] Analysis of the Results: • expressed as OD (proportional to BrdU incorporation and thus to cell proliferation rate) • expressed as percent stimulation: [formula] • expressed as standard error of the mean: SEM=standard deviation (SD)/√n Statistical analyses using unpaired bilateral Student's t-test were carried out on the raw OD values. […]

Substance: sodium hyaluronate
- fibroblast proliferation (BrdU incorporation, OD 450 nm): moderate effect on fibroblast proliferation

Source: patent US20170049678A1, “COMBINATION OF A HYALURONIC ACID AND OF A SULPHATED POLYSACCHARIDE” (PIERRE FABRE DERMO-COSMETIQUE, priority 2014, published 2017)
